Like-named read-outs stand apart in the source and are kept apart here.
Columns and labels:
[1] = tested on: SW620 tumor organoids; assay: Synergy studies with SN38 (LOEWE synergy scores); format: cell-based, human; parameters: key to LOEWE Synergy Score: % response beyond expectation; <-10 antagonism, -10–10 additive, >10 synergy; conditions: for LOEWE Synergy Score: compound at its IC50 (6: 5 μM; 6.3, 6.11: 3 μM)
Protocol: (§1) Cell based cytotoxicity dose response and combination studies. […] Plates were then incubated for 3 days before treatment.
(e.g., synergy score 20 corresponds to 20% of response beyond expectation). According to our experience, the synergy scores near 0 gives limited confidence on synergy or antagonism.
When the synergy score is: • Less than −10: the interaction between two drugs is likely to be antagonism; • From −10 to 10: the interaction between two drugs is likely to be additivity; • Larger than 10: the interaction between two drugs is likely to be synergy.

[2] = tested on: SW620 tumor organoids; assay: Tumor organoid cytotoxicity (CellTiter-Glo 3D); conditions: Homo sapiens
[3] = Mouse liver microsome stability; conditions: CD-1, mouse, liver microsomes, pH 7.4, Microsomal stability Mouse t1/2 (min), Table 6
Protocol: Microsome stability. CD-1 mouse microsomes were commercially purchased and the reactions were performed as previously described. […] The master mix was pre-incubated at 37° C. for 5 min, then 1 mM NADPH was added to start the microsomal activity reaction and maintained at 37° C. throughout the time course. Reactions were stopped at 0, 5, 15, 30, 45, and 60 min by adding 200 μL acetonitrile and analyzed by mass spectrometry. The appropriate microsome controls were also performed in the same reaction conditions.

[4] = tested on: SW620 tumor xenografts
Protocol: In vivo studies. […] Body weight and tumor volumes were monitored 2×/week. […] In addition, irinotecan was administered i.p. at 50 mg/kg.

[5] = tested on: CRC042 patient-derived tumor organoids; assay: Patient tumor organoid cytotoxicity; format: cell-based; conditions: Homo sapiens; single agent, Table 4A
[6] = tested on: CRC102 patient-derived tumor organoids; assay: Patient tumor organoid cytotoxicity; format: cell-based; conditions: Homo sapiens; single agent, Table 4A
Protocol: Patient Cell Tumor Organoid Culture. CRC048 and CRC102 patient cell samples were expanded and cultured as PDTOs using reported methodologies and reagents. (Drost et al., 2016; Sato et al., 2011) Briefly, patient cells were washed with PBS, digested with TrypLE, and filtered through 100 μm cell strainer before used in 3D cell culture. Patient cells were seeded at 5,000 cells per well in 96-well plates, coated with 2% Matrigel, and allowed to self-assemble as PDTOs over 72 h.
(§2) Tumor Organoid Cytotoxicity.

[7] = tested on: SW620 quasi-mesenchymal (GFP+) tumor xenografts; assay: Antitumor activity by oral gavage against SW620 quasi-mesenchymal (GFP+) xenografts; format: in vivo, athymic nude mice
Protocol: (Esquer et al., 2021) Five days after cell injection, injected mice were randomized into three groups for treatment (Tx). Group 1 (12 mice) received control treatment of gavage vehicle (10% DMSO, 90% PEG 400 (polyethylene glycol 400) by volume). […] Mice were treated once a day, 5 days a week PO (via oral gavage). Mice were weighed and tumor volume assessed twice a week by caliper measurement as illustrated in FIGS. 21A and 21B. At sacrifice, tumors were weighed and measured. In addition, gross observations on condition of mice were made and samples of plasma, tumors, liver spleen and kidneys were collected for further assessment, e.g., drug quantification and toxicity assessment.

[8] = Pharmacokinetics in CD-1 mice; conditions: oral gavage (p.o.) 50 mg/kg
Protocol: Whole blood was harvested at specific time points and the separated plasma frozen at −80° C. for storage or used for LC-MS/MS analysis.

[9] = tested on: HCT116 tumor organoids; assay: Tumor organoid cytotoxicity (CellTiter-Glo 3D); format: cell-based, human; conditions: Homo sapiens
Protocol: as §1
Cell Line Tumor Organoid Culture.
as §2

[10] = Human microsomal stability; format: in vitro ADME; conditions: human microsomes, Table 6, read-out: Microsomal stability Human t1/2
[11] = tested on: SW620 tumor organoids
[12] = combination of 6.11 and irinotecan

Compound: Cc1cc(Nc2ccc(NC(=O)Cc3cc(Br)cs3)cc2)nc(N2CCCC2)n1 [Compound 6.11, 2-(4-bromothiophen-2-yl)-N-(4-((6-methyl-2-(pyrrolidin-1-yl)pyrimidin-4-yl)amino)phenyl)-acetamide]
- LOEWE Synergy Score ([1]; SN38 0.64 nM): 46
- LOEWE Synergy Score ([1]; SN38 16 nM): 52
- LOEWE Synergy Score ([1]; SN38 80 nM): 49
- LOEWE Synergy Score ([1]; SN38 400 nM): 48
- LOEWE Synergy Score ([1]; SN38 2000 nM): 36
- LOEWE Synergy Score ([1]; SN38 10000 nM): 25
- LOEWE Synergy Score ([1]; SN38 […]): 54
- synergism with irinotecan (and SN38), in words ([1]; killing SW620 tumor organoids): synergism
- IC50 ([2]; SW-620, 72 h, read-out: 3 D Cytotoxicity 72 hr IC50 (μM) SW620): 2.6 µM
- IC50 ([2]; SW-620, read-out: IC50 of cytotoxicity in SW620 cells): < 10 µM
- IC50 ([2]; SW-620, read-out: Tumor Organoid Cytotoxicity IC50 (μM) SW620): 2.6 µM
- half-life at 10 μM [3]: 0.954 h
- tumor volume, combination with irinotecan ([4]; 6.11 1×/day + irinotecan 50 mg/kg i.p., up to 20 days, M-phenotype xenografts, vs irinotecan alone or control): significantly inhibits colorectal cancer SW620 tumor xenografts
- tumor volume after the last treatment, combination with irinotecan ([4]; 6.11 + irinotecan vs irinotecan alone, last treatment day 33): significantly inhibits colorectal SW620 tumors beyond the last treatment
- survival of tumor-bearing mice, combination with irinotecan ([4]; 6.11 + irinotecan, compared to irinotecan alone and control): significantly increases the survival
- difference in tumor volume, irinotecan alone vs combination, 8 days post treatment [4, 12]: 3.4 fold
- drop of tumor volume post treatment [4, 12]: ~1.5 fold
- IC50 [5]: 4.5 µM
- IC50 [6]: 8.38 µM
- mouse body weight ([7]; oral gavage 75 and 125 mg/kg vs vehicle): no significant difference in body weight
- tumor volume ([7]; oral gavage 75 and 125 mg/kg, once a day 5 days a week, 27 days): significant dose dependent decrease in tumor volume
- oral bioavailability, uptake in the plasma [8]: 44%
- IC50 ([9]; HCT-116, 72 h, Table 6, read-out: 3 D Cytotoxicity 72 hr IC50 (μM) HCT116): 3.5 µM
- IC50 ([9]; HCT-116, single agent, Table 4A, read-out: Tumor Organoid Cytotoxicity IC50 (μM) HCT116): 3.48 µM
- half-life [10]: 4.38 h

Compound: Cc1cc(Nc2ccc(NC(=O)Cn3cnc4ccccc43)cc2)nc(N2CCCC2)n1 [Compound 6.28, 2-(1H-benzo[d]imidazole-1-yl)-N-(4-((6-methyl-2-(pyrrolidin-1-yl)pyrimidin-4-yl)amino)phenyl) acetamide]
- IC50 [11]: > 30 µM

Source: patent publication US20230103444A1 (The Regents of the University of Colorado, a Body Corporate, priority 2020, published 2023)
